Measured values: patent publication EP4745153A1, “GLP-1, GIP AND GCG RECEPTOR […] USE THEREOF” (Jiangsu Hengrui Pharmaceuticals Co., Ltd., priority 2023, dated 2025)
Like-named read-outs stand apart in the source and are kept apart here. Starred links: 1 amine or outer side, 2 acyl side, 3 side chain; linkers in the order of their positions; H or OH if unused. Non-standard residues stand in square brackets, D forms with d. Residues, ends and D or L forms follow the SMILES beside them. Groups on a side chain read outwards from the residue. No end group written: not given here. *: point of attachment. C20 diacid = O=C(O)CCCCCCCCCCCCCCCCCCC(=O)*; γGlu = O=C(O)[C@H](CCC(=O)[*:2])N[*:1]; αMeL = CC(C)C[C@](C)(N)C(=O)O; αMeK = C[C@](N)(CCCCN)C(=O)O; αMeS = C[C@](N)(CO)C(=O)O; AEEA = NCCOCCOCC(=O)O; αS = not defined here; Aib = CC(C)(N)C(=O)O

T1: human GIPR (Homo sapiens, UniProt P48546)
T1 construct: expressed in transfected cells; host or cells: CHO-K1 clonal cell line
T1 sequence (P48546 22-466): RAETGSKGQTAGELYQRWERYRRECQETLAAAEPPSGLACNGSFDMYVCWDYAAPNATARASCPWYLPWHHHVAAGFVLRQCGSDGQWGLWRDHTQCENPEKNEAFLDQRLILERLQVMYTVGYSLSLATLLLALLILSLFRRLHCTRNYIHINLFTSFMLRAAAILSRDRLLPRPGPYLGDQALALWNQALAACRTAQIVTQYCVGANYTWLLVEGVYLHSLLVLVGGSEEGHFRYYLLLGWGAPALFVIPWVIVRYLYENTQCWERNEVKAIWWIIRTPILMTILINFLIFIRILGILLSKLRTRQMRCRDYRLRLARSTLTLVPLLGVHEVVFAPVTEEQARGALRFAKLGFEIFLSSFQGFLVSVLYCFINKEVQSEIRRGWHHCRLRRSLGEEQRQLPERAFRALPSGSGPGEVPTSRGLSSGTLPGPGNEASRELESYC

T2: human glucose-dependent insulinotropic polypeptide receptor (human, UniProt P48546 22-466)
T2 sequence (looked up): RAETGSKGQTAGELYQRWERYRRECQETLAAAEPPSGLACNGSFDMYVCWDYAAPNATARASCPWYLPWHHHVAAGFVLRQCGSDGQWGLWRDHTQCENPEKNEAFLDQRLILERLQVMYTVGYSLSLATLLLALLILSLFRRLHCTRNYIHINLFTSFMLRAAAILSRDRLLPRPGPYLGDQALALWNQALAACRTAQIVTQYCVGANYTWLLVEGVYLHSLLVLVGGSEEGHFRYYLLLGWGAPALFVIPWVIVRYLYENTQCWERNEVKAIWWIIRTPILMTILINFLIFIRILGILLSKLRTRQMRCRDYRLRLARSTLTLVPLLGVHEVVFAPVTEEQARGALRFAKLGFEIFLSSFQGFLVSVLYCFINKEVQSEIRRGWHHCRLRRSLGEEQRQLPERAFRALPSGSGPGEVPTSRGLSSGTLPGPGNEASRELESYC

B1: Compound No. 0125 (peptide)
peptide: H[Aib]HGTFTSDYSI[αMeL]LEK([AEEA-AEEA-γGlu-C20 diacid])KAAQEFVEWLLAGGPSSGAPPPS-NH2
modifications: N-terminus assumed
SMILES: CC[C@H](C)[C@H](NC(=O)[C@H](CO)NC(=O)[C@H](Cc1ccc(O)cc1)NC(=O)[C@H](CC(=O)O)NC(=O)[C@H](CO)NC(=O)[C@@H](NC(=O)[C@H](Cc1ccccc1)NC(=O)[C@@H](NC(=O)CNC(=O)[C@H](Cc1c[nH]cn1)NC(=O)C(C)(C)NC(=O)[C@@H](N)Cc1c[nH]cn1)[C@@H](C)O)[C@@H](C)O)C(=O)N[C@@](C)(CC(C)C)C(=O)N[C@@H](CC(C)C)C(=O)N[C@@H](CCC(=O)O)C(=O)N[C@@H](CCCCNC(=O)COCCOCCNC(=O)COCCOCCNC(=O)CC[C@H](NC(=O)CCCCCCCCCCCCCCCCCCC(=O)O)C(=O)O)C(=O)N[C@@H](CCCCN)C(=O)N[C@@H](C)C(=O)N[C@@H](C)C(=O)N[C@@H](CCC(N)=O)C(=O)N[C@@H](CCC(=O)O)C(=O)N[C@@H](Cc1ccccc1)C(=O)N[C@H](C(=O)N[C@@H](CCC(=O)O)C(=O)N[C@@H](Cc1c[nH]c2ccccc12)C(=O)N[C@@H](CC(C)C)C(=O)N[C@@H](CC(C)C)C(=O)N[C@@H](C)C(=O)NCC(=O)NCC(=O)N1CCC[C@H]1C(=O)N[C@@H](CO)C(=O)N[C@@H](CO)C(=O)NCC(=O)N[C@@H](C)C(=O)N1CCC[C@H]1C(=O)N1CCC[C@H]1C(=O)N1CCC[C@H]1C(=O)N[C@@H](CO)C(N)=O)C(C)C

Legend:
[1] = target: T3, human glucagon receptor (human, UniProt P47871 26-477); assay: cell-based or functional assay
T3 sequence (P47871 26-477): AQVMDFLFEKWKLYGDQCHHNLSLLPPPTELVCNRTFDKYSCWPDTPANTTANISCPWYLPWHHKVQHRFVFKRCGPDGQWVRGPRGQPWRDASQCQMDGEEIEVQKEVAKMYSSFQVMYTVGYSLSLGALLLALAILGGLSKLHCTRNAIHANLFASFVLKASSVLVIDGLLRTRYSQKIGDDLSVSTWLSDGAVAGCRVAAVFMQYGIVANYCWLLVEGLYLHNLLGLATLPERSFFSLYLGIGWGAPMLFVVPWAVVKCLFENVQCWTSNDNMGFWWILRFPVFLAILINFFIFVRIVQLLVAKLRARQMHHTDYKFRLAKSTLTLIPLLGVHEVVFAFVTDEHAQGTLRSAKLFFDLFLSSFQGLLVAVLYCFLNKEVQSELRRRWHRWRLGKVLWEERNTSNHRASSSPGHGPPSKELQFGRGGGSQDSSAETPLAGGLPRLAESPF

[2] = target: human glucose-dependent insulinotropic polypeptide receptor (human) (UniProt P48546); assay: cell-based or functional assay
[3] = target: human glucagon-like peptide-1 receptor (human, UniProt P43220 24-463); assay: cell-based or functional assay
Chain of human glucagon-like peptide-1 receptor (P43220 24-463): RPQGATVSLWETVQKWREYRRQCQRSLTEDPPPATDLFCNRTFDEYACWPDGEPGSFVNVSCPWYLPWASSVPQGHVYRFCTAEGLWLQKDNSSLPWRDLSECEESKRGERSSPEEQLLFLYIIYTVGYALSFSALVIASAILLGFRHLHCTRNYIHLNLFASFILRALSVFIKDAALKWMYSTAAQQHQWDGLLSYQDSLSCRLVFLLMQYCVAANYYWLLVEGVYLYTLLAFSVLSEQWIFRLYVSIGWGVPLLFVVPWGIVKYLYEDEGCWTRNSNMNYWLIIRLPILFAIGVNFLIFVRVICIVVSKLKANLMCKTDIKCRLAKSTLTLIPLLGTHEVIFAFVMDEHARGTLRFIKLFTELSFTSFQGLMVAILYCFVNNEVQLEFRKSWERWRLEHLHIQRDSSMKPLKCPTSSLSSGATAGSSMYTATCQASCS

[4] = target: T1, human GIPR; assay: cAMP HTRF agonist activity assay in CHO-K1 cells expressing GIPR; assay type: cell-based
Outline: (§1)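 Clonal CHO-K1 lines, 5000 cells/well, exposed to polypeptides for 30 min at 37°C. Intracellular cAMP read by HTRF (cAMP-d2 conjugate plus anti-cAMP-Eu cryptate in lysis buffer). Relative EC50 from four-parameter nonlinear fit of percent maximum response against concentration.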

[5] = Pharmacokinetics in mice after single intravenous injection; design: species or system C57 mice; conditions: mouse, in vivo, male C57 mice, single intravenous dose 200 nmol/kg, plasma; for clearance: read-out: CLp; for half-life: read-out: T1/2 (converted)
Outline: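 Male C57 mice (~25 g, 4-6 weeks, n=3) received a single i.v. dose of 200 nmol/kg in 1×PBS. Plasma collected from 5 min to 72 h was methanol-precipitated with verapamil internal standard and quantified by LC-MS (ESI positive, MRM); PK parameters were calculated by PKSolver.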

[6] = Solubility in the vehicle; assay type: physicochemical; conditions: stated in the summary only, no test example
[7] = Physical stability of solution in the vehicle; assay type: physicochemical; conditions: incubation at 25 degrees Celsius for 28 days; stated in the description, no method given
[8] = In vivo efficacy in diet-induced obesity (DIO) mouse model; design: species or system C57BL/6J mice; conditions: 10 nmol/kg subcutaneous once daily for 24 days, indicating good safety
Description: In this example, a DIO mouse model established by high-fat diet induction was used to evaluate the effects on and improvement of obesity and diabetes-related indicators in DIO mice after subcutaneous injection of some of the compounds in the present disclosure.
4.1 Experimental methods: Obese male C57BL/6J mice (23-24 weeks old, obtained from Beijing Vital River Laboratory Animal Technology Co., Ltd.) induced by a high-fat diet were purchased. Six-week-old male C57BL/6J mice were fed a 60% high-fat diet (RD D12492) until their body weight reached 45-50g to obtain DIO model mice. After arriving at the facility and undergoing a week of acclimatization feeding, the animals were randomly divided into groups according to their body weight and administered vehicle (model group), LY3437943, Compound 15, Compound 16, Compound 17 and Compound 18 via subcutaneous injection in the neck. The compound was administered at a dose of 10 nmol/kg, and the frequency of administration was once daily via subcutaneous injection for 24 days. Each group contained 5 DIO mice. According to the experimental design, the body weight of each mouse was weighed and recorded daily at 3 pm or before administration, the average body weight of each group of mice was calculated, and a curve of body weight change over time was plotted. After the experiment, the fat and other organs of the mice were removed from various parts of the body, weighed, and recorded.

[9] = target: T4, human GLP-1R (Homo sapiens, UniProt P43220); assay: cAMP HTRF agonist activity assay in CHO-K1 cells expressing GLP-1R; assay type: cell-based
T4 construct: expressed in transfected cells; host or cells: CHO-K1 clonal cell line
T4 sequence (P43220 24-463): as above
Outline: as §1

[10] = target: T3, human glucagon receptor; assay: cell-based or functional assay; remark: listed apart in the source
[11] = target: T2, human glucose-dependent insulinotropic …; assay: cell-based or functional assay

Molecule	EC50 [4] [nM]	AUC(0-inf) [5] [µM·h]	C0 [5] [µM]	clearance [5] [mL/h/kg]	half-life [5] [h]	solubility in the vehicle [6] [mg/mL]	appearance of the solution in the vehicle [7]	also measured
LY3437943 (peptide)								Activity against human GCGR (EC50 nM) [1]: 0.412 nM; Activity against human GIPR (EC50 nM) [2]: 0.002 nM; Activity against human GLP-1R (EC50 nM) [3]: 0.08 nM
CC[C@H](C)[C@H](NC(=O)[C@H](CC(C)C)NC(=O)[C@H](Cc1c[nH]c2ccccc12)NC(=O)[C@H](CCC(=O)O)NC(=O)[C@@H](NC(=O)[C@H](Cc1ccccc1)NC(=O)[C@H](CCC(=O)O)NC(=O)[C@](C)(CO)NC(=O)[C@H](C)NC(=O)[C@H](C)NC(=O)[C@H](CCCCN)NC(=O)[C@H](CCCCNC(=O)COCCOCCNC(=O)COCCOCCNC(=O)CC[C@H](NC(=O)CCCCCCCCCCCCCCCCCCC(=O)O)C(=O)O)NC(=O)[C@H](CCC(=O)O)NC(=O)[C@H](CC(C)C)NC(=O)[C@H](CC(C)C)NC(=O)[C@](C)(CCCCN)NC(=O)[C@H](CO)NC(=O)[C@H](Cc1ccc(O)cc1)NC(=O)[C@H](CC(=O)O)NC(=O)[C@H](CO)NC(=O)[C@@H](NC(=O)[C@H](Cc1ccccc1)NC(=O)[C@@H](NC(=O)CNC(=O)[C@H](Cc1c[nH]cn1)NC(=O)C(C)(C)NC(=O)[C@@H](N)Cc1c[nH]cn1)[C@@H](C)O)[C@@H](C)O)C(C)C)C(=O)N[C@@H](CCC(=O)O)C(=O)NCC(=O)NCC(=O)N1CCC[C@H]1C(=O)N[C@@H](CO)C(=O)N[C@@H](CO)C(=O)NCC(=O)N[C@@H](C)C(=O)N1CCC[C@H]1C(=O)N1CCC[C@H]1C(=O)N1CCC[C@H]1C(=O)N[C@@H](CO)C(N)=O [Compound 0126] (H-H[Aib]HGTFTSDYS[αMeK]LLEK([AEEA-AEEA-γGlu-C20 diacid])KAA[αMeS]EFVEWLIEGGPSSGAPPPS-NH2)	0.002	103	7.17	1.98	10.1	≥ 20		
H-Aib-HGTFTSDYS-αK-LLE-K(-OEG-OEG-γGlu-C(O)-(CH2)18-COOH)-KAA-αS-EFVEWLIEGGPSSGAPPPS-NH2 (H[Aib]HGTFTSDYS[αMeK]LLEK([AEEA-AEEA-γGlu-C20 diacid])KAA[αS]EFVEWLIEGGPSSGAPPPS-NH2; reading uncertain; also: printed as H-Aib-HGTFTSDYS-αK-LLE-K(-OEG-OEG-γGlu-C(O)-(CH2)18-COOH)-KAA-αS-EFVEWLIEGGPSSGAPPPS-NH2) [Compound 0126]							remains clear and transparent	
H-Aib-HGTFTSDYSI-αL-LE-K(-OEG-OEG-γGlu-C(O)-(CH2)18-COOH)-KAAQEFVEWLLAGGPSSGAPPPS-NH2 (H[Aib]HGTFTSDYSI[αMeL]LEK([AEEA-AEEA-γGlu-C20 diacid])KAAQEFVEWLLAGGPSSGAPPPS-NH2; N-terminus assumed; SMILES CC[C@H](C)[C@H](NC(=O)[C@H](CO)NC(=O)[C@H](Cc1ccc(O)cc1)NC(=O)[C@H](CC(=O)O)NC(=O)[C@H](CO)NC(=O)[C@@H](NC(=O)[C@H](Cc1ccccc1)NC(=O)[C@@H](NC(=O)CNC(=O)[C@H](Cc1c[nH]cn1)NC(=O)C(C)(C)NC(=O)[C@@H](N)Cc1c[nH]cn1)[C@@H](C)O)[C@@H](C)O)C(=O)N[C@@](C)(CC(C)C)C(=O)N[C@@H](CC(C)C)C(=O)N[C@@H](CCC(=O)O)C(=O)N[C@@H](CCCCNC(=O)COCCOCCNC(=O)COCCOCCNC(=O)CC[C@H](NC(=O)CCCCCCCCCCCCCCCCCCC(=O)O)C(=O)O)C(=O)N[C@@H](CCCCN)C(=O)N[C@@H](C)C(=O)N[C@@H](C)C(=O)N[C@@H](CCC(N)=O)C(=O)N[C@@H](CCC(=O)O)C(=O)N[C@@H](Cc1ccccc1)C(=O)N[C@H](C(=O)N[C@@H](CCC(=O)O)C(=O)N[C@@H](Cc1c[nH]c2ccccc12)C(=O)N[C@@H](CC(C)C)C(=O)N[C@@H](CC(C)C)C(=O)N[C@@H](C)C(=O)NCC(=O)NCC(=O)N1CCC[C@H]1C(=O)N[C@@H](CO)C(=O)N[C@@H](CO)C(=O)NCC(=O)N[C@@H](C)C(=O)N1CCC[C@H]1C(=O)N1CCC[C@H]1C(=O)N1CCC[C@H]1C(=O)N[C@@H](CO)C(N)=O)C(C)C) [Compound 0125]							remains clear and transparent	
CC[C@H](C)[C@H](NC(=O)[C@H](CO)NC(=O)[C@H](Cc1ccc(O)cc1)NC(=O)[C@H](CC(=O)O)NC(=O)[C@H](CO)NC(=O)[C@@H](NC(=O)[C@H](Cc1ccccc1)NC(=O)[C@@H](NC(=O)CNC(=O)[C@H](Cc1c[nH]cn1)NC(=O)C(C)(C)NC(=O)[C@@H](N)Cc1c[nH]cn1)[C@@H](C)O)[C@@H](C)O)C(=O)N[C@@](C)(CC(C)C)C(=O)N[C@@H](CC(C)C)C(=O)N[C@@H](CCC(=O)O)C(=O)N[C@@H](CCCCNC(=O)COCCOCCNC(=O)COCCOCCNC(=O)CC[C@H](NC(=O)CCCCCCCCCCCCCCCCCCC(=O)O)C(=O)O)C(=O)N[C@@H](CCCCN)C(=O)N[C@@H](C)C(=O)N[C@@H](C)C(=O)N[C@@H](CCC(N)=O)C(=O)N[C@@H](CCC(=O)O)C(=O)N[C@@H](Cc1ccccc1)C(=O)N[C@H](C(=O)N[C@@H](CCC(=O)O)C(=O)N[C@@H](Cc1c[nH]c2ccccc12)C(=O)N[C@@H](CC(C)C)C(=O)N[C@@H](CC(C)C)C(=O)N[C@@H](C)C(=O)NCC(=O)NCC(=O)N1CCC[C@H]1C(=O)N[C@@H](CO)C(=O)N[C@@H](CO)C(=O)NCC(=O)N[C@@H](C)C(=O)N1CCC[C@H]1C(=O)N1CCC[C@H]1C(=O)N1CCC[C@H]1C(=O)N[C@@H](CO)C(N)=O)C(C)C [Compound 0125] (H-H[Aib]HGTFTSDYSI[αMeL]LEK([AEEA-AEEA-γGlu-C20 diacid])KAAQEFVEWLLAGGPSSGAPPPS-NH2)	0.002	96.1	5.79	2.1	14.6	≥ 20		final body weight relative to body weight of mice on a normal diet (Chow) [8]: ≥ 80%; EC50 [9]: 0.032 nM
B1								Activity against human GCGR (EC50 nM) [10]: 0.071 nM; Activity against human GIPR (EC50 nM) [11]: 0.002 nM
